Key:
[1] = test system: NCI-H460; experiment: Anticancer activity against human NCI-H460 cells assessed as cell growth inhibition at 10 uM incubated for 48 hrs by SRB assay relative to control; type: functional; conditions: read-out: GI
[2] = test system: OVCAR-3; experiment: Anticancer activity against human OVCAR-3 cells assessed as cell growth inhibition at 10 uM incubated for 48 hrs by SRB assay relative to control; type: functional; conditions: read-out: GI
[3] = test system: T47D; experiment: Anticancer activity against human T47D cells assessed as cell growth inhibition at 10 uM incubated for 48 hrs by SRB assay relative to control; type: functional; conditions: read-out: GI
[4] = test system: HCC 2998; experiment: Anticancer activity against human HCC 2998 cells assessed as cell growth inhibition at 10 uM incubated for 48 hrs by SRB assay relative to control; type: functional; conditions: read-out: GI
[5] = test system: SF-539; experiment: Anticancer activity against human SF-539 cells assessed as cell growth inhibition at 10 uM incubated for 48 hrs by SRB assay relative to control; type: functional; conditions: read-out: GI
[6] = test system: HOP-92; experiment: Anticancer activity against human HOP-92 cells assessed as cell growth inhibition at 10 uM incubated for 48 hrs by SRB assay relative to control; type: functional; conditions: read-out: GI
[7] = test system: KM12; experiment: Anticancer activity against human KM12 cells assessed as cell growth inhibition at 10 uM incubated for 48 hrs by SRB assay relative to control; type: functional; conditions: read-out: GI
[8] = test system: SNB-19; experiment: Anticancer activity against human SNB-19 cells assessed as cell growth inhibition at 10 uM incubated for 48 hrs by SRB assay relative to control; type: functional; conditions: read-out: GI
[9] = test system: SNB-75; experiment: Anticancer activity against human SNB-75 cells assessed as cell growth inhibition at 10 uM incubated for 48 hrs by SRB assay relative to control; type: functional; conditions: read-out: GI
[10] = test system: NCI-H522; experiment: Anticancer activity against human NCI-H522 cells assessed as cell growth inhibition at 10 uM incubated for 48 hrs by SRB assay relative to control; type: functional; conditions: read-out: GI
[11] = test system: HCT-116; experiment: Anticancer activity against human HCT-116 cells assessed as cell growth inhibition at 10 uM incubated for 48 hrs by SRB assay relative to control; type: functional; conditions: read-out: GI
[12] = test system: SN12C; experiment: Anticancer activity against human SN12C cells assessed as cell growth inhibition at 10 uM incubated for 48 hrs by SRB assay relative to control; type: functional; conditions: read-out: GI
[13] = test system: UACC-257; experiment: Anticancer activity against human UACC-257 cells assessed as cell growth inhibition at 10 uM incubated for 48 hrs by SRB assay relative to control; type: functional; conditions: read-out: GI
[14] = test system: SF-295; experiment: Anticancer activity against human SF-295 cells assessed as cell growth inhibition at 10 uM incubated for 48 hrs by SRB assay relative to control; type: functional; conditions: read-out: GI
[15] = test system: HOP-62; experiment: Anticancer activity against human HOP-62 cells assessed as cell growth inhibition at 10 uM incubated for 48 hrs by SRB assay relative to control; type: functional; conditions: read-out: GI
[16] = test system: BT-549; experiment: Anticancer activity against human BT-549 cells assessed as cell growth inhibition at 10 uM incubated for 48 hrs by SRB assay relative to control; type: functional; conditions: read-out: GI
[17] = test system: ACHN; experiment: Anticancer activity against human ACHN cells assessed as cell growth inhibition at 10 uM incubated for 48 hrs by SRB assay relative to control; type: functional; conditions: read-out: GI
[18] = test system: NCI-H23; experiment: Anticancer activity against human NCI-H23 cells assessed as cell growth inhibition at 10 uM incubated for 48 hrs by SRB assay relative to control; type: functional; conditions: read-out: GI
[19] = test system: MDA-MB-435; experiment: Anticancer activity against human MDA-MB-435 cells assessed as cell growth inhibition at 10 uM incubated for 48 hrs by SRB assay relative to control; type: functional; conditions: read-out: GI
[20] = test system: SR; experiment: Anticancer activity against human SR cells assessed as cell growth inhibition at 10 uM incubated for 48 hrs by SRB assay relative to control; type: functional; conditions: read-out: GI
[21] = test system: HT-29; experiment: Anticancer activity against human HT-29 cells assessed as cell growth inhibition at 10 uM incubated for 48 hrs by SRB assay relative to control; type: functional; conditions: read-out: GI
[22] = target: Carbonic anhydrase 9 (Homo sapiens, UniProt Q16790); experiment: Inhibition of recombinant human CA 9 preincubated for 15 mins by phenol red dye based stopped flow CO2 hydration assay
[23] = test system: MOLT-4; experiment: Anticancer activity against human MOLT-4 cells assessed as cell growth inhibition at 10 uM incubated for 48 hrs by SRB assay relative to control; type: functional; conditions: read-out: GI
[24] = test system: SK-MEL-2; experiment: Anticancer activity against human SK-MEL-2 cells assessed as cell growth inhibition at 10 uM incubated for 48 hrs by SRB assay relative to control; type: functional; conditions: read-out: GI
[25] = test system: CAKI-1; experiment: Anticancer activity against human CAKI-1 cells assessed as cell growth inhibition at 10 uM incubated for 48 hrs by SRB assay relative to control; type: functional; conditions: read-out: GI
[26] = test system: IGROV-1; experiment: Anticancer activity against human IGROV-1 cells assessed as cell growth inhibition at 10 uM incubated for 48 hrs by SRB assay relative to control; type: functional; conditions: read-out: GI
[27] = test system: OVCAR-5; experiment: Anticancer activity against human OVCAR-5 cells assessed as cell growth inhibition at 10 uM incubated for 48 hrs by SRB assay relative to control; type: functional; conditions: read-out: GI
[28] = test system: MDA-MB-231; experiment: Anticancer activity against human MDA-MB-231 cells assessed as cell growth inhibition at 10 uM incubated for 48 hrs by SRB assay relative to control; type: functional; conditions: read-out: GI
[29] = test system: Hs-578T; experiment: Anticancer activity against human Hs-578T cells assessed as cell growth inhibition at 10 uM incubated for 48 hrs by SRB assay relative to control; type: functional; conditions: read-out: GI
[30] = test system: Malme-3M; experiment: Anticancer activity against human Malme-3M cells assessed as cell growth inhibition at 10 uM incubated for 48 hrs by SRB assay relative to control; type: functional; conditions: read-out: GI
[31] = test system: SK-OV-3; experiment: Anticancer activity against human SK-OV-3 cells assessed as cell growth inhibition at 10 uM incubated for 48 hrs by SRB assay relative to control; type: functional; conditions: read-out: GI
[32] = test system: SK-MEL-5; experiment: Anticancer activity against human SK-MEL-5 cells assessed as cell growth inhibition at 10 uM incubated for 48 hrs by SRB assay relative to control; type: functional; conditions: read-out: GI
[33] = test system: K562; experiment: Anticancer activity against human K562 cells assessed as cell growth inhibition at 10 uM incubated for 48 hrs by SRB assay relative to control; type: functional; conditions: read-out: GI
[34] = test system: MDA-MB-468; experiment: Anticancer activity against human MDA-MB-468 cells assessed as cell growth inhibition at 10 uM incubated for 48 hrs by SRB assay relative to control; type: functional; conditions: read-out: GI
[35] = test system: RXF 393; experiment: Anticancer activity against human RXF 393 cells assessed as cell growth inhibition at 10 uM incubated for 48 hrs by SRB assay relative to control; type: functional; conditions: read-out: GI
[36] = test system: TK-10; experiment: Anticancer activity against human TK-10 cells assessed as cell growth inhibition at 10 uM incubated for 48 hrs by SRB assay relative to control; type: functional; conditions: read-out: GI
[37] = test system: OVCAR-4; experiment: Anticancer activity against human OVCAR-4 cells assessed as cell growth inhibition at 10 uM incubated for 48 hrs by SRB assay relative to control; type: functional; conditions: read-out: GI
[38] = test system: SK-MEL-28; experiment: Anticancer activity against human SK-MEL-28 cells assessed as cell growth inhibition at 10 uM incubated for 48 hrs by SRB assay relative to control; type: functional; conditions: read-out: GI
[39] = test system: HL-60(TB); experiment: Anticancer activity against human HL-60(TB) cells assessed as cell growth inhibition at 10 uM incubated for 48 hrs by SRB assay relative to control; type: functional; conditions: read-out: GI

NS(=O)(=O)c1ccc(Nc2nc(N/N=C/CCc3ccccc3)nc(Nc3ccccc3)n2)cc1
inhibition of growth at 10 µM [1]: < 10% | inhibition of growth at 10 µM [2]: < 10% | inhibition of growth at 10 µM [3]: < 10% | inhibition of growth at 10 µM [4]: < 10% | inhibition of growth at 10 µM [5]: < 10% | inhibition of growth at 10 µM [6]: < 10% | inhibition of growth at 10 µM [7]: < 10% | inhibition of growth at 10 µM [8]: < 10% | inhibition of growth at 10 µM [9]: < 10% | inhibition of growth at 10 µM [10]: 12% | inhibition of growth at 10 µM [11]: < 10% | inhibition of growth at 10 µM [12]: < 10% | inhibition of growth at 10 µM [13]: < 10% | inhibition of growth at 10 µM [14]: < 10% | inhibition of growth at 10 µM [15]: < 10% | inhibition of growth at 10 µM [16]: < 10% | inhibition of growth at 10 µM [17]: < 10% | inhibition of growth at 10 µM [18]: < 10% | inhibition of growth at 10 µM [19]: < 10% | inhibition of growth at 10 µM [20]: < 10% | inhibition of growth at 10 µM [21]: < 10% | Ki [22]: 0.0288 µM | inhibition of growth at 10 µM [23]: < 10% | inhibition of growth at 10 µM [24]: < 10% | inhibition of growth at 10 µM [25]: < 10% | inhibition of growth at 10 µM [26]: < 10% | inhibition of growth at 10 µM [27]: < 10% | inhibition of growth at 10 µM [28]: < 10% | inhibition of growth at 10 µM [29]: < 10% | inhibition of growth at 10 µM [30]: < 10% | inhibition of growth at 10 µM [31]: < 10% | inhibition of growth at 10 µM [32]: < 10% | inhibition of growth at 10 µM [33]: < 10% | inhibition of growth at 10 µM [34]: 11% | inhibition of growth at 10 µM [35]: < 10% | inhibition of growth at 10 µM [36]: < 10% | inhibition of growth at 10 µM [37]: < 10% | inhibition of growth at 10 µM [38]: < 10% | inhibition of growth at 10 µM [39]: < 10%

NS(=O)(=O)c1ccc(Nc2nc(N/N=C/C=C/c3ccccc3)nc(Nc3ccccc3)n2)cc1
inhibition of growth at 10 µM [1]: 93% | inhibition of growth at 10 µM [2]: 55% | inhibition of growth at 10 µM [3]: 81% | inhibition of growth at 10 µM [4]: 61% | inhibition of growth at 10 µM [5]: 60% | inhibition of growth at 10 µM [6]: 16% | inhibition of growth at 10 µM [7]: 44% | inhibition of growth at 10 µM [8]: 51% | inhibition of growth at 10 µM [9]: 57% | inhibition of growth at 10 µM [10]: 33% | inhibition of growth at 10 µM [11]: 70% | inhibition of growth at 10 µM [12]: 51% | inhibition of growth at 10 µM [13]: 20% | inhibition of growth at 10 µM [14]: 55% | inhibition of growth at 10 µM [15]: 43% | inhibition of growth at 10 µM [16]: 34% | inhibition of growth at 10 µM [17]: 61% | inhibition of growth at 10 µM [18]: 59% | inhibition of growth at 10 µM [19]: 48% | inhibition of growth at 10 µM [20]: 85% | inhibition of growth at 10 µM [21]: 65% | Ki [22]: 0.233 µM | inhibition of growth at 10 µM [23]: 87% | inhibition of growth at 10 µM [24]: 55% | inhibition of growth at 10 µM [25]: 53% | inhibition of growth at 10 µM [26]: 63% | inhibition of growth at 10 µM [27]: < 10% | inhibition of growth at 10 µM [28]: 52% | inhibition of growth at 10 µM [29]: 60% | inhibition of growth at 10 µM [30]: 49% | inhibition of growth at 10 µM [31]: 21% | inhibition of growth at 10 µM [32]: 59% | inhibition of growth at 10 µM [33]: 72% | inhibition of growth at 10 µM [34]: 84% | inhibition of growth at 10 µM [35]: 108% | inhibition of growth at 10 µM [36]: 13% | inhibition of growth at 10 µM [37]: 50% | inhibition of growth at 10 µM [38]: 39% | inhibition of growth at 10 µM [39]: 61%

From ChEMBL document CHEMBL5154747, “Discovery of new carbonic anhydrase IX inhibitors as anticancer agents by toning the hydrophobic and hydrophilic rims of the active site to encounter the dual-tail approach” (Eur J Med Chem, 2022)
